Measured values published in patent US10765114B2, “4-amino-6-(pyridyl and 2-substitutedphenyl)-picolinates and 6-amino-2-(pyridyl and 2-substitutedphenyl)-pyrimidine-4-carboxylates and their use as herbicides” (Dow AgroSciences LLC, priority 2013, dated 2020).

Columns and labels:
[1] = system: AMARE: redroot pigwseed (Amaranthus retroflexus); test: Pre-Emergent Test I; format: in vivo; details: 4 kg ai/ha, preemergence
Protocol: (§1) Pre-Emergent Test I Seeds of test species were planted into round plastic pots (5-inch diameter) containing sandy loam soil. After planting, all pots were sub-irrigated 16 h prior to compound application. Compounds were dissolved in a 97:3 v/v mixture of acetone and DMSO and diluted to the appropriate concentration in a final application solution containing water, acetone, isopropanol, DMSO and Agri-dex (crop oil concentrate) in a 59:23:15:1.0:1.5 v/v ratio and 0.02% w/v (weight/volume) of Triton X-155 to obtain the spray solution containing the highest application rate. Additional application rates were obtained by serial dilution of the high rate solution with the above application solution Formulated compound (2.7 mL) was pipetted evenly over the soil surface followed by incorporation with water (15 mL). Following treatment, pots were returned to the greenhouse for the duration of the experiment. The greenhouse was programmed for an approximate 15 h photoperiod which was maintained at about 23-29° C. during the day and 22-28° C. during the night. Nutrients and water were added on a regular basis through surface irrigation and supplemental lighting was provided with overhead metal halide 1000-Watt lamps as necessary. Herbicidal effect ratings were obtained 14 days after treatment. All evaluations were made relative to appropriate controls on a scale of 0 to 100 where 0 represents no herbicidal effect and 100 represents plant death or lack of emergence from the soil and presented in Table A. Some of the compounds tested, application rates employed, plant species tested, and results are given in Table 4.

[2] = system: AVEFA: wild oats (Avena fatua); test: Pre-Emergent Test I; format: in vivo; details: 4 kg ai/ha, preemergence
Protocol: as §1

[3] = system: ECHSS (ECHCG: barnyardgrass (Echinochloa crus-galli)); test: Pre-Emergent Test I; format: in vivo; details: 4 kg ai/ha, preemergence
Protocol: as §1

[4] = system: HELAN: sunflower (Helianthus annuus); test: Pre-Emergent Test I; format: in vivo; details: 4 kg ai/ha, preemergence
Protocol: as §1

[5] = system: IPOSS (IPOHE: ivyleaf morningglory (Ipomoea hederecea)); test: Pre-Emergent Test I; format: in vivo; details: 4 kg ai/ha, preemergence
Protocol: as §1

[6] = system: SETFA: giant foxtail (Setaria faberi); test: Pre-Emergent Test I; format: in vivo; details: 4 kg ai/ha, preemergence
Protocol: as §1

[7] = system: test plant species in Wheat and Barley; test: Post-Emergent Test III (Wheat and Barley), further species of Table 9; format: in vivo; details: for Visual Growth Reduction (%) 21 Days After Application, CHEAL: CHEAL lambsquarters (Chenopodium album); for Visual Growth Reduction (%) 21 Days After Application, CHEAL / Visual Growth Reduction (%) 21 Days After Application, GALAP / Visual Growth Reduction (%) 21 Days After Application, STEME / Visual Growth Reduction (%) 21 Days After Application, VIOTR: post-emergent; for GR50, CHEAL / GR50, GALAP / GR50, STEME / GR50, VIOTR: growth reduction of 50%; for GR50, CHEAL / GR80, CHEAL / GR90, CHEAL / GR50, GALAP / GR80, GALAP / GR90, GALAP / GR50, STEME / GR80, STEME / GR90, STEME / GR50, VIOTR / GR80, VIOTR / GR90, VIOTR: probit analysis, 21 days; for GR80, CHEAL / GR80, GALAP / GR80, STEME / GR80, VIOTR: growth reduction of 80%; for GR90, CHEAL / GR90, GALAP / GR90, STEME / GR90, VIOTR: growth reduction of 90%; for Visual Growth Reduction (%) 21 Days After Application, GALAP: GALAP cleavers (Galium aparine); for Visual Growth Reduction (%) 21 Days After Application, STEME: STEME common chickweed (Stellaria media); for Visual Growth Reduction (%) 21 Days After Application, VIOTR: VIOTR wild pansy (Viola tricolor)
Protocol: (§2) Seeds of the desired test plant species were planted in Sun Gro MetroMix® 306 planting mixture, which typically has a pH of 6.0 to 6.8 and an organic matter content of about 30 percent, in plastic pots with a surface area of 103.2 square centimeters (cm^2). When required to ensure good germination and healthy plants, a fungicide treatment and/or other chemical or physical treatment was applied. The plants were grown for 7-36 days in a greenhouse with an approximate 14 h photoperiod which was maintained at about 18° C. during the day and 17° C. during the night. Nutrients and water were added on a regular basis and supplemental lighting was provided with overhead metal halide 1000-Watt lamps as necessary. The plants were employed for testing when they reached the second or third true leaf stage.
(§3) A weighed amount, determined by the highest rate to be tested, of each test compound was placed in a 25 mL glass vial and was dissolved in 4 mL of a 97:3 v/v mixture of acetone and DMSO to obtain concentrated stock solutions. […] The concentrated stock solutions obtained were diluted with 20 mL of an aqueous mixture containing acetone, water, isopropyl alcohol, DMSO, Agri-Dex crop oil concentrate, and X-77 surfactant in a 48:39:10:1.5:1.5:0.02 v/v ratio to obtain spray solutions containing the highest application rates. Additional application rates were obtained by serial dilution of 12 mL of the high rate solution into a solution containing 2 mL of 97:3 v/v mixture of acetone and DMSO and 10 mL of an aqueous mixture containing acetone, water, isopropyl alcohol, DMSO, Agri-Dex crop oil concentrate, and X-77 surfactant in a 48:39:10:1.5:1.5:0.02 v/v ratio to obtain ½×, ¼×, ⅛× and 1/16× rates of the high rate. Compound requirements are based upon a 12 mL application volume at a rate of 187 liters per hectare (L/ha). Formulated compounds were applied to the plant material with an overhead Mandel track sprayer equipped with 8002E nozzles calibrated to deliver 187 L/ha over an application area of 0.503 square meters at a spray height of 18 inches (43 cm) above the average plant canopy height. Control plants were sprayed in the same manner with the solvent blank.
(§4) The treated plants and control plants were placed in a greenhouse as described above and watered by subirrigation to prevent wash-off of the test compounds. After 21 dAYS, the condition of the test plants as compared with that of the untreated plants was determined visually and scored on a scale of 0 to 100 percent where 0 corresponds to no injury and 100 corresponds to complete kill and presented as indicated in Table A.
(§5) By applying the well-accepted probit analysis as described by J. Berkson in Journal of the American Statistical Society, 48, 565 (1953) and by D. Finney in “Probit Analysis” Cambridge University Press (1952), herbicidal injury of a specific compound at various rates can be used to calculate GR10, GR20, GR50, GR80 and GR90 values, which are defined as growth reduction factors that correspond to the effective dose of herbicide required to provide plant growth reduction (GR) of 10 percent, 20 percent, 50 percent, 80 percent and 90 percent, respectively. Probit analysis was applied to data collected from multiple dose rates of individual compounds utilizing the procedures explained in the following examples. The analysis of those dose rates is captured in the following tables.

SINAR (wild mustard) = test: Post-Emergent Test III (Wheat and Barley); format: in vivo, Sinapis arvensis; details: for Visual Growth Reduction (%) 21 Days After Application, SINAR: postemergence; for GR50, SINAR: effective dose for growth reduction of 50 percent; for GR50, SINAR / GR80, SINAR / GR90, SINAR: probit analysis; for GR80, SINAR: effective dose for growth reduction of 80 percent; for GR90, SINAR: effective dose for growth reduction of 90 percent
Protocol: as §2, §3, §4, §5

Compound	Visual Growth Reduction (%) 21 Days After Application, CHEAL ([7]; 17.5 g ai/ha)	Visual Growth Reduction (%) 21 Days After Application, CHEAL ([7]; 35 g ai/ha)	Visual Growth Reduction (%) 21 Days After Application, CHEAL ([7]; 70 g ai/ha)	GR50, CHEAL [7] [g ai/ha]	GR80, CHEAL [7] [g ai/ha]	GR90, CHEAL [7] [g ai/ha]	Visual Growth Reduction (%) 21 Days After Application, GALAP ([7]; 17.5 g ai/ha)	Visual Growth Reduction (%) 21 Days After Application, GALAP ([7]; 35 g ai/ha)	Visual Growth Reduction (%) 21 Days After Application, GALAP ([7]; 70 g ai/ha)	GR50, GALAP [7] [g ai/ha]	GR80, GALAP [7] [g ai/ha]	GR90, GALAP [7] [g ai/ha]	Visual Growth Reduction (%) 21 Days After Application, STEME ([7]; 17.5 g ai/ha)	Visual Growth Reduction (%) 21 Days After Application, STEME ([7]; 35 g ai/ha)	Visual Growth Reduction (%) 21 Days After Application, STEME ([7]; 70 g ai/ha)	GR50, STEME [7] [g ai/ha]	GR80, STEME [7] [g ai/ha]	GR90, STEME [7] [g ai/ha]	Visual Growth Reduction (%) 21 Days After Application, VIOTR ([7]; 17.5 g ai/ha)	Visual Growth Reduction (%) 21 Days After Application, VIOTR ([7]; 35 g ai/ha)	also measured
COC(=O)c1nc(-c2ccc(C(F)(F)F)nc2)cc(N)c1Cl [Compound 4]	–	–	–	–	–	–	–	–	–	–	–	–	–	–	–	–	–	–	–	–	Visual Growth Reduction (%) 14 Days After Application, AMARE [1]: D (60-74); Visual Growth Reduction (%) 14 Days After Application, AVEFA [2]: G (0-29); Visual Growth Reduction (%) 14 Days After Application, ECHSS [3]: F (30-44); Visual Growth Reduction (%) 14 Days After Application, HELAN [4]: G (0-29); Visual Growth Reduction (%) 14 Days After Application, IPOSS [5]: G (0-29); Visual Growth Reduction (%) 14 Days After Application, SETFA [6]: F (30-44)
COC(=O)c1nc(-c2ccc(Br)nc2)c(F)c(N)c1Cl [Compound 22, methyl 4-amino-6′-bromo-5-chloro-3-fluoro-[2,3′-bipyridine]-6-carboxylate]	A (95-100)	A (95-100)	A (95-100)	2	6	11	D (60-74)	B (85-94)	A (95-100)	11	24	36	F (30-44)	E (45-59)	D (60-74)	28	>140	>140	A (95-100)	A (95-100)	Visual Growth Reduction (%) 21 Days After Application, VIOTR ([7]; 70 g ai/ha): A (95-100); GR50, VIOTR [7]: 4 g ai/ha; GR80, VIOTR [7]: 7 g ai/ha; GR90, VIOTR [7]: 9 g ai/ha
Cc1c(-c2cc(N)c(Cl)c(C(=O)O)n2)ccc(Cl)c1Cl [Compound 28]	C (75-84)	C (75-84)	B (85-94)	1	30	>140	F (30-44)	E (45-59)	D (60-74)	29	120	>140	D (60-74)	C (75-84)	B (85-94)	11	31	53	G (0-29)	G (0-29)	Visual Growth Reduction (%) 21 Days After Application, VIOTR ([7]; 70 g ai/ha): G (0-29); GR50, VIOTR [7]: >140 g ai/ha; GR80, VIOTR [7]: >140 g ai/ha; GR90, VIOTR [7]: >140 g ai/ha
Nc1c(F)c(-c2ccc(C(F)(F)F)nc2)nc(C(=O)O)c1Cl [Compound 46, 4-amino-5-chloro-3-fluoro-6′-(trifluoromethyl)-[2,3′-bipyridine]-6-carboxylic acid]	–	–	–	–	–	–	–	–	–	–	–	–	–	–	–	–	–	–	–	–	Visual Growth Reduction (%) 21 Days After Application, SINAR (SINAR (wild mustard); 35 g ai/ha): B (85-94); Visual Growth Reduction (%) 21 Days After Application, SINAR (SINAR (wild mustard); 70 g ai/ha): B (85-94); Visual Growth Reduction (%) 21 Days After Application, SINAR (SINAR (wild mustard); 140 g ai/ha): A (95-100); GR50, SINAR (SINAR (wild mustard)): 2 g ai/ha; GR80, SINAR (SINAR (wild mustard)): 19 g ai/ha; GR90, SINAR (SINAR (wild mustard)): 62 g ai/ha
Cc1c(-c2cc(N)c(Cl)c(C(=O)O)n2)ccc(Cl)c1F [Compound 52]	–	–	–	–	–	–	–	–	–	–	–	–	–	–	–	–	–	–	–	–	Visual Growth Reduction (%) 21 Days After Application, SINAR (SINAR (wild mustard); 35 g ai/ha): A (95-100); Visual Growth Reduction (%) 21 Days After Application, SINAR (SINAR (wild mustard); 70 g ai/ha): A (95-100); Visual Growth Reduction (%) 21 Days After Application, SINAR (SINAR (wild mustard); 140 g ai/ha): A (95-100); GR50, SINAR (SINAR (wild mustard)): 1 g ai/ha; GR80, SINAR (SINAR (wild mustard)): 1 g ai/ha; GR90, SINAR (SINAR (wild mustard)): 5 g ai/ha
COC(=O)c1nc(-c2ccc(Cl)c(F)c2C)cc(N)c1Cl [Compound 73]	–	–	–	–	–	–	–	–	–	–	–	–	–	–	–	–	–	–	–	–	Visual Growth Reduction (%) 21 Days After Application, SINAR (SINAR (wild mustard); 35 g ai/ha): A (95-100); Visual Growth Reduction (%) 21 Days After Application, SINAR (SINAR (wild mustard); 70 g ai/ha): A (95-100); Visual Growth Reduction (%) 21 Days After Application, SINAR (SINAR (wild mustard); 140 g ai/ha): A (95-100); GR50, SINAR (SINAR (wild mustard)): 1 g ai/ha; GR80, SINAR (SINAR (wild mustard)): 1 g ai/ha; GR90, SINAR (SINAR (wild mustard)): 3 g ai/ha
Nc1cc(-c2ccc(Cl)c(Cl)c2Cl)nc(C(=O)O)c1Cl [Compound 93]	C (75-84)	B (85-94)	B (85-94)	1	16	80	D (60-74)	C (75-84)	C (75-84)	1	88	>140	E (45-59)	D (60-74)	D (60-74)	11	>140	>140	E (45-59)	E (45-59)	Visual Growth Reduction (%) 21 Days After Application, VIOTR ([7]; 70 g ai/ha): E (45-59); GR50, VIOTR [7]: 41 g ai/ha; GR80, VIOTR [7]: >140 g ai/ha; GR90, VIOTR [7]: >140 g ai/ha
